Laboratory results: patent US8691753B2 (priority 2009, dated 2014)
Read-outs that look alike come from different tables or passages of the source.

Tests used:
Type in all cases: biochemical
[1] = system: human MMPs; assay: Inhibition of the panel of human MMPs (overall statements, selectivity); conditions: for selectivity factor F = Ki MMP-x/Ki MMP-12: other human MMPs versus MMP-12; for inhibitory activity toward MMPs (in words): summary of table I
[2] = molecular target: MMP-8h (Homo sapiens (Human), UniProt P22894); assay: Inhibition constant (Ki) on MMP-8h
[3] = molecular target: MMP-1h (Homo sapiens (Human), UniProt P03956); assay: Inhibition constant (Ki) on MMP-1h
Text: (§1) The inhibition constant Ki of these compounds has been determined according to the protocol described by Devel et al, 2006, J. Biol. Chem. (7).
(§2) In this table I and also in table II below, “h” corresponds to human. All of the compounds have therefore been evaluated on human MMPs.

[4] = molecular target: MMP-2h (Homo sapiens (Human), UniProt P08253); assay: Inhibition constant (Ki) on MMP-2h
Procedure, shortened: (§3)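 Ki values were determined against the human enzymes using a previously published inhibition protocol.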

[5] = molecular target: MMP-3h (Homo sapiens (Human), UniProt P08254); assay: Inhibition constant (Ki) on MMP-3h
Procedure, shortened: as §3

[6] = molecular target: MMP-14h (Homo sapiens (Human), UniProt P50281); assay: Inhibition constant (Ki) on MMP-14h
Procedure, shortened: as §3

[7] = molecular target: MMP-9h (Homo sapiens (Human), UniProt P14780); assay: Inhibition constant (Ki) on MMP-9h
Procedure, shortened: as §3

[8] = molecular target: MMP-7h (Homo sapiens (Human), UniProt P09237); assay: Inhibition constant (Ki) on MMP-7h
Text: as §1, §2

[9] = molecular target: MMP-10h (Homo sapiens (Human), UniProt P09238); assay: Inhibition constant (Ki) on MMP-10h
[10] = molecular target: MMP-13h (Homo sapiens (Human), UniProt P45452); assay: Inhibition constant (Ki) on MMP-13h
Procedure, shortened: as §3

[11] = molecular target: MMP-12h (Homo sapiens (Human), UniProt P39900); assay: Inhibition constant (Ki) on MMP-12h
[12] = read-out: Ki MMP-8h, human MMP-8
[13] = read-out: Ki MMP-1h, human MMP-1
[14] = read-out: Ki MMP-2h, human MMP-2
[15] = read-out: Ki MMP-3h, human MMP-3
[16] = read-out: Ki MMP-14h, human MMP-14
[17] = read-out: Ki MMP-9h, human MMP-9
[18] = read-out: Ki MMP-7h, human MMP-7
[19] = read-out: Ki MMP-10h, human MMP-10
[20] = read-out: Ki MMP-13h, human MMP-13
[21] = read-out: Ki MMP-12h, human MMP-12

Chain of MMP-9h (P14780 94-707): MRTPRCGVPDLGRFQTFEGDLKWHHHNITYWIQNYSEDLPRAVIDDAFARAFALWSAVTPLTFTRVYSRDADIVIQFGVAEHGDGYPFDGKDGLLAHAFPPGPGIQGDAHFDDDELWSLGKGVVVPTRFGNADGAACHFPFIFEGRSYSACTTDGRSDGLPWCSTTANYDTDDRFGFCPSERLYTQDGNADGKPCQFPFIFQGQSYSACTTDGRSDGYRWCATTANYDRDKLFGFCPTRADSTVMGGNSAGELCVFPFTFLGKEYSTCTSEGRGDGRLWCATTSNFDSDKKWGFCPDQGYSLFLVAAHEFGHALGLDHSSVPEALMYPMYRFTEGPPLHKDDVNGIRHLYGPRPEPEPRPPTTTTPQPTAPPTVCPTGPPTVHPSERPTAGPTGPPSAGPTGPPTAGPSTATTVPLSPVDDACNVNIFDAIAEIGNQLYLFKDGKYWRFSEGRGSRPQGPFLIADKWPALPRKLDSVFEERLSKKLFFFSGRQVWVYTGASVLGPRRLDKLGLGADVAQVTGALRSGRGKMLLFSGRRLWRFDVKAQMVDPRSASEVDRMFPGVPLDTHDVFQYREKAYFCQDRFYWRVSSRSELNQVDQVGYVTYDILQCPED
Chain of MMP-10h (P09238 99-476): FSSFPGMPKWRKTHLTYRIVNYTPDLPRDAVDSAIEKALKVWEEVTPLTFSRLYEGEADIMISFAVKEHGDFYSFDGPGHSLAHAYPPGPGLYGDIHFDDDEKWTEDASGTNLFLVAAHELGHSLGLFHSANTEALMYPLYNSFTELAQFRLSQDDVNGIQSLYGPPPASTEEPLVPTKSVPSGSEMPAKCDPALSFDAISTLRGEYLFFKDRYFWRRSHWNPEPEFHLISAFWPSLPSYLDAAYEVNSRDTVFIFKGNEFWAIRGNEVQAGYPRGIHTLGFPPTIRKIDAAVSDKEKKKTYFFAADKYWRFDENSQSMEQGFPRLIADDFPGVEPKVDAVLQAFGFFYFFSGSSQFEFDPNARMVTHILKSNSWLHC
Chain of MMP-3h (P08254 100-477): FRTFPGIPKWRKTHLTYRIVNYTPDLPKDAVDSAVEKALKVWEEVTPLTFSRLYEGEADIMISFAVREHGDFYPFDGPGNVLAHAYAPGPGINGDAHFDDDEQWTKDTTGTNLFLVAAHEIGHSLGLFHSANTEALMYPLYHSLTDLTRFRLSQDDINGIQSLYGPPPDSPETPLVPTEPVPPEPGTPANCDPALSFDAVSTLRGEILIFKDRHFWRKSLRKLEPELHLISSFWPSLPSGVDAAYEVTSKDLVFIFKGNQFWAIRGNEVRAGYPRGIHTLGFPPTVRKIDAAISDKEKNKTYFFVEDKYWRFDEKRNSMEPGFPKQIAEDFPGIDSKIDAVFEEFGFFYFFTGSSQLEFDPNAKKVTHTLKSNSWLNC
Chain of MMP-12h (P39900 106-470): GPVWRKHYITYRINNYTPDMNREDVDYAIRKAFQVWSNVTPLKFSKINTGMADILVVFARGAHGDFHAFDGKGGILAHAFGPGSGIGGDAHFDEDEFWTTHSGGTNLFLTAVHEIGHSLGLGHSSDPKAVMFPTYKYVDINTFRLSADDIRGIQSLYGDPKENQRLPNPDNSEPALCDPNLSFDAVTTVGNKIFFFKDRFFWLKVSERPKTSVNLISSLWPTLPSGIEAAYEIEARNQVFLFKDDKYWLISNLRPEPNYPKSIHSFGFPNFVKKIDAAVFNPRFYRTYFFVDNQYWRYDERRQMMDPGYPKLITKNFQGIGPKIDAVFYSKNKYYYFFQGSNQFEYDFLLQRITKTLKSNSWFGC
Chain of MMP-1h (P03956 100-469): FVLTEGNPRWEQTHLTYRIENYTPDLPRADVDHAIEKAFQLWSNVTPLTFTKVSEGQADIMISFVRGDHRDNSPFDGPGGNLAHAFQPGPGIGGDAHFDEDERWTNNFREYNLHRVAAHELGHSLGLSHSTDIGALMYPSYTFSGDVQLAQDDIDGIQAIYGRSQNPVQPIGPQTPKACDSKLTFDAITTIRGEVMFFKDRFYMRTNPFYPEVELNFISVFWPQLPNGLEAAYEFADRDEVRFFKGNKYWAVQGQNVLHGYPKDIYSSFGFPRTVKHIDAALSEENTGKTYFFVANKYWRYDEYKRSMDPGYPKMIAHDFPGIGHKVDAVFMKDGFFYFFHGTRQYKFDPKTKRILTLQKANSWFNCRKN
Chain of MMP-8h (P22894 101-467): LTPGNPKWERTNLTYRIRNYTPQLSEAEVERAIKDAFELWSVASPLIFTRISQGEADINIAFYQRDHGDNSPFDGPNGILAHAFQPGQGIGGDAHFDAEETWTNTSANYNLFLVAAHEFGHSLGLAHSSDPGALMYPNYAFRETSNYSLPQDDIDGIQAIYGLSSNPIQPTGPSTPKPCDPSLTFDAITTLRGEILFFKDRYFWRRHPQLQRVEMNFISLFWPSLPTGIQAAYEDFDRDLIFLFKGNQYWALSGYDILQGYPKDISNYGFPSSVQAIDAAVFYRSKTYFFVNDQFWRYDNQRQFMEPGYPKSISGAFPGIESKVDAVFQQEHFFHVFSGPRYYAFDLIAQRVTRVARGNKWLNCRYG
Chain of MMP-7h (P09237 95-267): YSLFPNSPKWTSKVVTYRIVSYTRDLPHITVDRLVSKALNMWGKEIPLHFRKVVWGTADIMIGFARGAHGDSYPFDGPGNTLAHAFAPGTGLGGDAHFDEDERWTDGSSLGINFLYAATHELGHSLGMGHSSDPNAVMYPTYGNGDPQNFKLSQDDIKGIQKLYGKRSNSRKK
Chain of MMP-2h (P08253 110-660): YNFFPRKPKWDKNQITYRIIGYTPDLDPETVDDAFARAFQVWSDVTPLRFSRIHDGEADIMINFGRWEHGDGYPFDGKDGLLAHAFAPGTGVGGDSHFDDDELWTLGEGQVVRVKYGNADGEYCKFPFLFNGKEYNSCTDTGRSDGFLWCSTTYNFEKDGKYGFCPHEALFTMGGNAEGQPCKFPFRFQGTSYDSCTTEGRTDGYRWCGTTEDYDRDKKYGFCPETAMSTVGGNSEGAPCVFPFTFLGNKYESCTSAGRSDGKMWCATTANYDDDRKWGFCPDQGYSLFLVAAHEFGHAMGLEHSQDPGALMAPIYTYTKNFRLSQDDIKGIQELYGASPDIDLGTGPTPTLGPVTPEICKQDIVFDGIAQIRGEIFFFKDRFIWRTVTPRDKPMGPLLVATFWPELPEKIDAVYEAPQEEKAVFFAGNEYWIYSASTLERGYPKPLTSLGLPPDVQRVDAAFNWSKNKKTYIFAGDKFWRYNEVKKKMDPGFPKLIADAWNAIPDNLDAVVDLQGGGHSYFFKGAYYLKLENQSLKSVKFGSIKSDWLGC

| SMILES | Ki [2, 12] | Ki [3, 13] | Ki [4, 14] | Ki [5, 15] | Ki [6, 16] | Ki [7, 17] | Ki [8, 18] | Ki [9, 19] | Ki [10, 20] | Ki [11, 21] | inhibitory activity toward MMPs (in words) [1] | also measured |
| --- | --- | --- | --- | --- | --- | --- | --- | --- | --- | --- | --- | --- |
| NC(=O)[C@H](CCCC(=O)O)NC(=O)[C@H](CCC(=O)O)NC(=O)CCc1ccc(-c2cc(-c3ccccc3)cs2)cc1 [Compound 103, (S)-6-amino-5-((S)-4-carboxy-2-(3-(4-(4-phenylthiophen-2-yl)phenyl)propanamido)butanamido)-6-oxohexanoic acid] | 656 nM | > 10000 nM | > 1000 nM | > 5000 nM | > 1000 nM | > 5000 nM | > 5000 nM | 845 nM | 563 nM | 2.9 nM | – | selectivity factor F = Ki MMP-x/Ki MMP-12 [1]: > 100 |
| NC(=O)[C@H](CC(=O)O)NC(=O)[C@H](CCC(=O)O)NC(=O)CCc1ccc(-c2cc(-c3ccccc3)cs2)cc1 [Compound 101, (S)-5-((S)-1-amino-3-carboxy-1-oxopropan-2-ylamino)-5-oxo-4-(3-(4-(4-phenylthiophen-2-yl)phenyl)propanamido)pentanoic acid] | 379 nM | > 100000 nM | > 1000 nM | > 5000 nM | > 1000 nM | > 5000 nM | > 100000 nM | 571 nM | 933 nM | 2.56 nM | – | selectivity factor F = Ki MMP-x/Ki MMP-12 [1]: > 100 |
| NC(=O)[C@H](CCC(=O)O)NC(=O)[C@H](CCC(=O)O)NC(=O)CCc1cn(-c2ccccc2)nn1 [Compound 24, (S)-5-amino-4-((S)-4-carboxy-2-(3-(1-phenyl-1H-1,2,3-triazol-4-yl)propanamido)butanamido)-5-oxopentanoic acid] | > 1000 nM | – | > 5000 nM | > 1000 nM | > 5000 nM | > 1000 nM | – | > 1000 nM | > 5000 nM | > 1000 nM | do not have any inhibitory activity | – |
| NC(=O)[C@H](CCC(=O)O)NC(=O)[C@H](CCC(=O)O)NC(=O)CCc1cc(-c2ccc(-c3cccc(Cl)c3)cc2)no1 [Compound 3, (S)-5-amino-4-((S)-4-carboxy-2-(3-(3-(3′-chlorobiphenyl-4-yl)isoxazol-5-yl)propanamido)butanamido)-5-oxopentanoic acid] | 181 nM | > 10000 nM | 76 nM | 62 nM | > 1000 nM | 565 nM | > 1000 nM | 47 nM | 40 nM | – | quite a powerful inhibitor of MMPs 2, 3, 10, 12 and 13 | – |
| NC(=O)[C@H](CCC(=O)O)NC(=O)[C@H](CCC(=O)O)NC(=O)CCc1cc(-c2ccccc2)on1 [Compound 25, (S)-5-amino-4-((S)-4-carboxy-2-(3-(5-phenylisoxazol-3-yl)propanamido)butanamido)-5-oxopentanoic acid] | 332 nM | – | > 1000 nM | > 5000 nM | > 1000 nM | > 5000 nM | – | > 1000 nM | 550 nM | 160 nM | MMP inhibitors | – |
| NC(=O)[C@H](CCC(=O)O)NC(=O)[C@H](CCC(=O)O)NC(=O)CCc1ccc(-c2cccs2)cc1 [Compound 80, (S)-5-amino-4-((S)-4-carboxy-2-(3-(4-(thiophen-2-yl)phenyl)propanamido)butanamido)-5-oxopentanoic acid] | 40 nM | > 100000 nM | 142 nM | > 1000 nM | > 1000 nM | > 1000 nM | > 1000 nM | 373 nM | 321 nM | 8.6 nM | – | – |
| N=c1ccc2c(-c3cc(C(=O)NCCCOCCOCCOCCCNC(=O)[C@H](CCC(=O)O)NC(=O)[C@H](CCC(=O)O)NC(=O)CCc4ccc(-c5cc(-c6ccccc6)cs5)cc4)ccc3C(=O)O)c3ccc(N)c(S(=O)(=O)O)c3oc-2c1S(=O)(=O)O [Compound 108] | – | – | – | – | – | – | – | – | – | – | – | Ki [2]: > 2500 nM; Selectivity factor/MMP12, MMP-8h ([2]; Ki MMP-8h/Ki MMP-12): 170; Ki [3]: > 10000 nM; Selectivity factor/MMP12, MMP-1h ([3]; Ki MMP-1h/Ki MMP-12): 670; Ki [4]: > 2500 nM; Selectivity factor/MMP12, MMP-2h ([4]; Ki MMP-2h/Ki MMP-12): 170; Ki [5]: > 10000 nM; Selectivity factor/MMP12, MMP-3h ([5]; Ki MMP-3h/Ki MMP-12): 670; Ki [6]: > 10000 nM; Selectivity factor/MMP12, MMP-14h ([6]; Ki MMP-14h/Ki MMP-12): 670; Ki [7]: > 5000 nM; Selectivity factor/MMP12, MMP-9h ([7]; Ki MMP-9h/Ki MMP-12): 333; Ki [8]: > 10000 nM; Selectivity factor/MMP12, MMP-7h ([8]; Ki MMP-7h/Ki MMP-12): 670; Ki [9]: 833 nM; Selectivity factor/MMP12, MMP-10h ([9]; Ki MMP-10h/Ki MMP-12): 55; Ki [10]: > 1000 nM; Selectivity factor/MMP12, MMP-13h ([10]; Ki MMP-13h/Ki MMP-12): 66; Ki [11]: 15 nM; Selectivity factor/MMP12, MMP-12h ([11]; Ki MMP-12h/Ki MMP-12): 1 |
| NC(=O)[C@H](CCC(=O)O)NC(=O)CCc1ccc(-c2cc(-c3ccccc3)cs2)cc1 [Compound 105, (S)-5-amino-5-oxo-4-(3-(4-(4-phenylthiophen-2-yl)phenyl)propanamido)pentanoic acid] | – | > 10000 nM | 377 nM | > 1000 nM | > 1000 nM | > 1000 nM | > 10000 nM | > 1000 nM | 603 nM | 3.65 nM | – | – |
| NC(=O)[C@H](CCC(=O)O)NC(=O)[C@H](CCC(=O)O)NC(=O)CCc1csc(-c2ccccc2)n1 [Compound 27, (S)-5-amino-4-((S)-4-carboxy-2-(3-(2-phenylthiazol-4-yl)propanamido)butanamido)-5-oxopentanoic acid] | > 1000 nM | – | > 1000 nM | > 1000 nM | > 5000 nM | > 5000 nM | – | > 5000 nM | 900 nM | > 5000 nM | do not have any inhibitory activity | – |
| NC(=O)[C@H](CCC(=O)O)NC(=O)[C@H](CCC(=O)O)NC(=O)CCc1noc(-c2ccccc2)n1 [Compound 26, (S)-5-amino-4-((S)-4-carboxy-2-(3-(5-phenyl-1,2,4-oxadiazol-3-yl)propanamido)butanamido)-5-oxopentanoic acid] | > 5000 nM | – | > 5000 nM | > 5000 nM | > 5000 nM | > 1000 nM | – | > 5000 nM | > 1000 nM | > 1000 nM | do not have any inhibitory activity | – |
| NC(=O)[C@H](CCC(=O)O)NC(=O)[C@H](CCC(=O)O)NC(=O)CCc1ccc(-c2ccc(-c3ccccc3)cc2)cc1 [Compound 61, (S)-5-amino-4-((S)-4-carboxy-2-(3-(4′-phenylbiphenyl-4-yl)propanamido)butanamido)-5-oxopentanoic acid] | 132 nM | > 5000 nM | 53 nM | 74 nM | > 1000 nM | > 1000 nM | 502 nM | 76 nM | 20 nM | 1.63 nM | – | – |
| O=C(O)CC[C@H](NC(=O)CCc1ccc(-c2cc(-c3ccccc3)cs2)cc1)C(=O)Nc1cccc(CC(=O)O)c1 [Compound 106, (S)-5-(3-(carboxymethyl)phenylamino)-5-oxo-4-(3-(4-(4-phenylthiophen-2-yl)phenyl)propanamido)pentanoic acid] | 675 nM | > 1000 nM | 339 nM | 791 nM | > 1000 nM | 396 nM | > 1000 nM | 318 nM | 132 nM | 4.3 nM | – | – |
| NC(=O)[C@H](CCC(=O)O)NC(=O)[C@H](CCC(=O)O)NC(=O)CCc1cc(-c2ccccc2)no1 [Compound 14, (S)-5-amino-4-((S)-4-carboxy-2-(3-(3-phenylisoxazol-5-yl)propanamido)butanamido)-5-oxopentanoic acid] | 112 nM | > 10000 nM | 756 nM | > 10000 nM | > 1000 nM | > 1000 nM | > 10000 nM | > 1000 nM | > 1000 nM | – | – | – |
| NC(=O)[C@H](CC(=O)O)NC(=O)[C@H](CCC(=O)O)NC(=O)CCc1cc(-c2ccc(-c3cccc(Cl)c3)cc2)no1 [Compound 8, (S)-5-((S)-1-amino-3-carboxy-1-oxopropan-2-ylamino)-4-(3-(3-(3′-chlorobiphenyl-4-yl)isoxazol-5-yl)propanamido)-5-oxopentanoic acid] | 556 nM | – | 112 nM | 243 nM | > 1000 nM | > 1000 nM | – | 35 nM | 30 nM | 11 nM | – | – |
